# Read-outs that look alike come from different tables or passages of the source.
# Tested on: A549 cells
# Experiment: Inhibition of cell growth in tumor cells, MTT assay
# Type: cell-based
# Settings: Homo sapiens, read-out: A549 cell IC50
# Experimental: Inhibition of cell growth by compounds was measured using MTT assay (Mosmann, T., Journal of Immunological Methods, 1983, 65, 55-63). Tumor cell lines were purchased from ATCC (American Type Culture Collection, Manassas, Va.). All cell lines were maintained in RPMI 1640 (Hyclone) supplemented with 10% fetal bovine serum (FBS, Hyclone), glutamine (2 mM, Hyclone), and antibiotics (penicillin 100 U/mL and streptomycin 50 μg/mL) at 37° C. in a humidified atmosphere of 5% CO2 in air. Taxol (positive control, Sigma) and compounds were dissolved in DMSO (Sigma), and the final concentration of DMSO in the medium was 1%. Tumor cells were plated in 96-well plates at densities from 4000 cells/well of a 96-well plate and allowed to adhere/grow for 24 h. They were then treated with various concentrations of drug for 72 h. […] The number of cells remaining after 72 h was compared to the number of viable cells at the time of compound addition by measuring the absorbance at 570 nm, allowing for the calculation of growth inhibition.
# All concentrations of compounds were tested in triplicate and controls were averaged over 4 wells. IC50 was calculated by plotting the concentration of compound vs the percentage of inhibition in treated wells using GraphPad Prism 5. […]
Structure (SMILES),"IC50 (A549, 72 h) [nM]","IC50 (A549 cells, MTT assay, 72 h compound exposure) [nM]"
"CC(=O)O[C@H]1C[C@]2(O)[C@@H]3CC[C@@H]4C[C@@H](OC(=O)N5CCNCC5)CC[C@]4(C)[C@H]3CC[C@]2(C)[C@H]1c1ccc(=O)oc1 [(3S,5R,8R,9S,10S,13R,14S,16S,17R)-16-acetoxy-14-hydroxy-10,13-dimethyl-17-(2-oxo-2H-pyran-5-yl)hexadecahydro-1H-cyclopenta[a]phenanthren-3-yl piperazine-1-carboxylate]",5.6,–
"C[C@]12CC[C@H](OC(=O)N3CCNCC3)C[C@H]1CC[C@@H]1[C@@H]2CC[C@]2(C)[C@@H](C3=CC(=O)OC3)CC[C@]12O [(3S,5R,8R,9S,10S,13R,14S,17R)-14-hydroxy-10,13-dimethyl-17-(5-oxo-2,5-dihydrofuran-3-yl)hexadecahydro-1H-cyclopenta[a]phenanthren-3-yl piperazine-1-carboxylate]",–,39
